# Measured values taken from patent publication US11420967B2 (priority 2018, dated 2022).
# Like-named read-outs stand apart in the source and are kept apart here.
# How the values were obtained:
# tubulin = biological target: T1, tubulin (Sus scrofa, UniProt P02550+P02554); test: Tubulin polymerization with fluorescent tubulin (Cytoskeleton Inc.); format: biochemical
# T1 construct: purchased Cytoskeleton Inc
# Method: Real-time tubulin polymerization was measured by quantifying increase in fluorescent tubulin assembly in microtubule (RFU) as a function of time (minutes).
# Dose-response curves that generated results in Table 5. Tubulin assembly was measured using fluoresent-rescent tubulin in 100 μl according to manufacturer's protocol (Cytoskeleton Inc.).
# T98G cells = test: Antitumor activity in T98G cells in culture (WST-1 cell viability); format: cell-based, human; conditions: for Emax: read-out: maximal efficacy at killing T98G cells; for increase in EC50 value relative to compound 8: compared with 8 (87 nM)
# Method: Unless otherwise noted, maximal efficacies were measured at 10 μM. Data are the mean of at least three independent experiments performed in triplicate.
# Cell culture. Cells were cultured in DMEM supplemented with 10% FBS, 100 U/mL penicillin, and 100 μg/mL streptomycin at 37° C. in a 5% CO2 humidified atmosphere. T98G and HepG2 cells (ATCC, Manassas, Va.) were authenticated by ATCC when purchased using human short tandem repeat analysis and maintained in culture for less than 6 months. Tumors were obtained from surgeries performed at the Swedish Medical Center (Seattle, Wash.) according to Institutional Review Board guidelines. Patient samples used in this study were diagnosed as WHO grade IV glioblastoma multiforme. Patient-derived GBM cells were established from the freshly resected tumor tissues and maintained in NeuroCult® NSA medium (Stem Cell Technologies) with B-27 serum-free supplement, 20 ng/mL epidermal growth factor and 20 ng/mL fibroblast growth factor 2 as previously described.
# Cell viability. […] Maximal % killing was calculated as the % reduction in cell viability measured at all drug concentration. EC50 values were calculated and reported only when a curve was reliably extrapolated by Prism software. The solvent for all modified carbazoles was DMSO (0.1% final).
# [1] = system: NCI-60 cancer cell line panel; test: NCI-60 cancer cell line panel screen (percent growth inhibition); format: cell-based, human
# From the text: FIG. 4 illustrates analysis of cell-killing activity of select compounds of the disclosure in NCI-60 cancer cell line panel. 8, 20, 27 and 23 (left panel) and taxol, thalipcarpine, and maytansine activity (right panel) in the NCI-60 cell lines.
# This screening platform measures the antitumor activities of compounds expressed as percent growth inhibition, which differentiates the compound's activity at inhibiting cell proliferation and reducing cell number (i.e. killing cells). […] Two GBM cells lines included in the NCI-60 panel, SF-295 and SF-539, were among the top ten cell lines that were the most sensitive to 8, 20 and 27 treatments (FIG. 6). Their respective EC50 values of the compounds measured in these cells mirrored their EC50 values measured in T98G cells. Additional cell lines among the top ten cell lines that were sensitive to these three compounds were three cell lines of colon cancer origin: Colo205, HT-29 and HCC-2998 (FIG. 5).
# [2] = biological target: T2, cannabinoid CB1 receptor (hCB1) (Homo sapiens, UniProt P21554); test: β-arrestin recruitment in hCB1-transfected HEK293 cells; format: cell-based; conditions: β-arrestin recruitment
# T2 construct: expressed in transfected cells; host or cells: HEK293
# T2 sequence (P21554 whole entry): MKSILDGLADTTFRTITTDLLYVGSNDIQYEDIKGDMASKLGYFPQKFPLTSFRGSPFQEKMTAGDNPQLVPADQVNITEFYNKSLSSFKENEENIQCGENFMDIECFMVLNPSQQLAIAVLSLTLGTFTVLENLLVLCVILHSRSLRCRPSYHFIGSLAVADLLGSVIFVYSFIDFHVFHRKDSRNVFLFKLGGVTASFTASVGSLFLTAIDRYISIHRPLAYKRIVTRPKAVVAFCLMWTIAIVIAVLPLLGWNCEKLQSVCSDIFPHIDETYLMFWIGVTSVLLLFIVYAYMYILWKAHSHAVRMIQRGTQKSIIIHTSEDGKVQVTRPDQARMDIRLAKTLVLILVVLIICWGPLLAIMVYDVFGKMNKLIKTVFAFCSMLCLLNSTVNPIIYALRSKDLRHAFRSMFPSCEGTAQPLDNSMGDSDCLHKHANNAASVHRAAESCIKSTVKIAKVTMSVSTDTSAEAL
# [3] = biological target: T3, colchicine site of tubulin (purified tubulin) (Bos taurus, UniProt P81947+Q6B856); test: [3H]colchicine binding to purified tubulin; set-up: species or system bovine; conditions: read-out: Colchicine Binding % inhibition (mean ± SD) at 5 μM
# T3 construct: from tissue; host or cells: native tubulin
# T3 sequence (Q6B856 whole entry): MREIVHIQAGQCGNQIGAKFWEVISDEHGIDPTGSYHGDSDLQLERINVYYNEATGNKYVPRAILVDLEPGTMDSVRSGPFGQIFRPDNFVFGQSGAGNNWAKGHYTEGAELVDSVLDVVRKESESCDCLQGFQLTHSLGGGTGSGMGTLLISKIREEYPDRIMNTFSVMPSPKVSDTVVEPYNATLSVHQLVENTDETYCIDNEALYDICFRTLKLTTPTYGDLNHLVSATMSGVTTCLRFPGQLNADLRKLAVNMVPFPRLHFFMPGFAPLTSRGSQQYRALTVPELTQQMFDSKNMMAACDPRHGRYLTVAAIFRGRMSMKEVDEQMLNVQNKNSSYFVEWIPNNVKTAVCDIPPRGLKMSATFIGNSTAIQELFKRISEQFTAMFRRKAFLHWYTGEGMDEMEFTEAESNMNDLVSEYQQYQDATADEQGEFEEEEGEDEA
# T3 sequence (P81947 whole entry): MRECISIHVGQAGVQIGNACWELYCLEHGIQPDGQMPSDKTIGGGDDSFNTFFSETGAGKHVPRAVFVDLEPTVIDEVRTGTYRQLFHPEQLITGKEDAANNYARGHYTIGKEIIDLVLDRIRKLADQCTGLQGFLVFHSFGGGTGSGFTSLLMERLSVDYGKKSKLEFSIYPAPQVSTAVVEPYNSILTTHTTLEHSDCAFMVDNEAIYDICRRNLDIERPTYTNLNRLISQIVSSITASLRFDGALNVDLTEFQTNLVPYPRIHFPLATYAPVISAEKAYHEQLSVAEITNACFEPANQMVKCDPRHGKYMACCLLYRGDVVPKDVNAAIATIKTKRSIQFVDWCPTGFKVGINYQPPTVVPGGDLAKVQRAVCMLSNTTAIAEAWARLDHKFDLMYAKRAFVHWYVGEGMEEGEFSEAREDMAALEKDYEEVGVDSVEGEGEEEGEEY
# Method: (§1) Results are mean±SEM from n=4-5 independent experiments performed in triplicates. […] Results are from 3 independent experiments performed in duplicate.
# First, it was determined whether compounds of the disclosure compete for [^3H]colchicine binding to native purified tubulin as previously described.
# [^3H]Colchicine binding to purified tubulin and tubulin assembly. [^3H]Colchicine binding to purified tubulin and tubulin assembly (as assessed by turbidity development in purified bovine tubulin solutions) were both measured as previously described.
# [4] = biological target: T4, sheared MTs / bovine brain tubulin (Bos taurus, UniProt P81947+Q6B856); test: MT-tubulin partitioning (free tubulin pelleting assay, gel quantification); format: biochemical
# T4 construct: Bovine brain tubulin was purified, polymerized into MTs and sheared; from tissue; host or cells: bovine brain
# T4 sequence (Q6B856 whole entry): as the sequence (Q6B856 whole entry) above
# T4 sequence (P81947 whole entry): as the sequence (P81947 whole entry) above
# Method: as §1
# Next tested was their ability to inhibit the assembly of purified tubulin using an in vitro turbidity assay as previously described. […] In this assay, compounds are incubated with sheared MTs at 37° C. and the resulting amounts of tubulin dimers (free tubulin) and polymer (MT) after 15 min is measured on polyacrylamide gels.
# MT-tubulin partitioning. Bovine brain tubulin was purified, polymerized into MTs and sheared as previously described. Sheared MTs and drugs were incubated at 37° C. for 15 min and centrifuged for 10 min at 42,000 rpm at 37° C. prior to separation into supernatants containing free tubulin and pellets containing polymerized MTs as previously described. […] Peak intensities were quantified using ImageJ.
# [5] = biological target: T5, cannabinoid CB2 receptor (hCB2) (Homo sapiens, UniProt P34972); test: β-arrestin recruitment in hCB2-transfected HEK293 cells; format: cell-based
# T5 construct: expressed in transfected cells; host or cells: HEK293
# T5 sequence (P34972 whole entry): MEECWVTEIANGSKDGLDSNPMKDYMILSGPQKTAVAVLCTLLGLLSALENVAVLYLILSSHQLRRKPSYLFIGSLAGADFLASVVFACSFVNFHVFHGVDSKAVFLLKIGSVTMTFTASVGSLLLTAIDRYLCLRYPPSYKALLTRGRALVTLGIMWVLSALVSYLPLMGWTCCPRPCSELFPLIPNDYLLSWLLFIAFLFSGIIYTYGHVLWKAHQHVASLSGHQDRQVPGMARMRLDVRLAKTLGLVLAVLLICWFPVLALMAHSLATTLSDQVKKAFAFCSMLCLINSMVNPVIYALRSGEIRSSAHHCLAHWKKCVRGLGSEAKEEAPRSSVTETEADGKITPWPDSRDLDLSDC
# [6] = Homo sapiens, T98G cells, WST-1, 72 hours after treatment, read-out: EC50
# [7] = Homo sapiens, T98G cells, rounded values of the discussion
# [8] = Homo sapiens, T98G, T98G cells, rounded values of the discussion
# T1 sequence (P02554 whole entry): as the sequence (Q6B856 whole entry) above, with T55A, M170V, S296A, I316V, E440G, G441E counted along it
# T1 sequence (P02550 whole entry): as the sequence (P81947 whole entry) above, with L136S, S232G, I265A, S340T, Q358E counted along it
Structure (SMILES),EC50 (T98G cells; [6]),antitumor activity in T98G cells (in words) (T98G cells; T98G cells),effect on T98G cell viability (in words) (T98G cells; T98G cells),"maximal killing (% ± SEM) (T98G cells; T98G cells, at 10 μM, 72 hours)",Emax (T98G cells; [7]),increase in EC50 value relative to compound 8 (T98G cells; T98G cells),other results
"CCn1c2ccccc2c2cc(C(O)c3cccc4ncccc34)ccc21 (single isomer, unassigned; (+)) [(+)-19, (+)-(9-ethyl-9H-carbazol-3-yl)(quinolin-5-yl)methanol]",–,–,–,–,–,–,"IC50 (tubulin; fluorescent tubulin, 100 μl): 0.64 µM"
"CCn1c2ccccc2c2cc(C(=O)N3CCN(C)CC3)ccc21 [Compound 9, 9-ethyl-3-(4-methylpiperazine-1-carbonyl)-9H-carbazole]",> 10000 nM,only active at concentrations above five micromolar,did not affect T98G cell viability significantly,13.2%,–,–,–
"CCn1c2ccccc2c2cc(C(=O)c3ccc(Cl)cc3)ccc21 [Compound 10, 3-(4-chlorobenzoyl)-9-ethyl-9H-carbazole]",1500 nM,–,–,71.1%,61%,–,–
"CCn1c2ccccc2c2cc(C(=O)c3ccc(F)cc3)ccc21 [Compound 11, 9-ethyl-3-(4-fluorobenzoyl)-9H-carbazole]",8000 nM,–,–,54.8%,55%,–,–
"CCn1c2ccccc2c2cc(C(=O)c3ccc(C)cc3)ccc21 [Compound 12, 9-ethyl-3-(4-methylbenzoyl)-9H-carbazole]",993 nM,–,–,–,84%,11 fold,"maximal killing (% ± SEM) (T98G cells; T98G cells, at 3 μM, 72 hours): 83.6%"
"CCn1c2ccccc2c2cc(C(=O)Cc3ccccc3)ccc21 [Compound 13, 1-(9-ethyl-9H-carbazol-3-yl)-2-phenylethan-1-one]",> 10000 nM,only active at concentrations above five micromolar,did not affect T98G cell viability significantly,–,–,more than 115 fold,"maximal killing (% ± SEM) (T98G cells; T98G cells, at 3 μM, 72 hours): 14.0%"
"CCn1c2ccccc2c2cc(C(=O)c3cccc4ccccc34)ccc21 [Compound 14, 9-ethyl-3-(naphthalene-1-carbonyl)-9H-carbazole]",1700 nM,–,–,72.0%,–,20 fold,Emax (T98G cells; [8]): 72%
"CCCn1c2ccccc2c2cc(C(=O)c3ccc(C)c4ccccc34)ccc21 [Compound 16, 9-propyl-3-[(4-methylnaphthalen-1-yl)carbonyl]-9H-carbazole]",> 10000 nM,only active at concentrations above five micromolar,did not affect T98G cell viability significantly,16.3%,–,115 fold,–
"Cc1ccc(C(=O)c2ccc3c(c2)c2ccccc2n3CC(F)(F)F)c2ccccc12 [Compound 18, 3-(4-methylnaphthalene-1-carbonyl)-9-(2,2,2-trifluoroethyl)-9H-carbazole]",5600 nM,only active at concentrations above five micromolar,–,35.6%,–,64 fold,"Emax (T98G cells; [8]): 35 to 45%; maximal efficacy at killing T98G cells (T98G cells; T98G cells, rounded values of the discussion): 35%"
"CCn1c2ccccc2c2cc(C(=O)c3cccc4cccnc34)ccc21 [Compound 22, 9-ethyl-3-(quinoline-8-carbonyl)-9H-carbazole]",8800 nM,–,–,60.0%,60%,–,reduction of maximal antitumor efficacy relative to compound 25 (T98G cells): 96%
"CCn1c2ccccc2c2cc(C(=O)c3cccc4c3CCCN4)ccc21 [Compound 23, (9-ethyl-9H-carbazol-3-yl)(1,2,3,4-tetrahydroquinolin-5-yl)methanone]",> 10000 nM,only active at concentrations above five micromolar,did not affect T98G cell viability significantly,–,–,–,"viability at 10 µM ([1]; Homo sapiens, 48 h, read-out: growth inhibition: mean): 102%; effect on proliferation and viability of NCI-60 cell lines (in words) ([1]; NCI-60, 10 μM, 48 hours): did not significantly affect the proliferation and viability of any of the cell lines; Agonist efficacy (% activation) CB1 [2]: −2 % activation; Antagonist efficacy (% activation) CB1 [2]: 16 % activation; EC50 ([2]; antagonist mode, read-out: Antagonist CB1, value in parentheses (EC50)): 183 nM; inhibition at 5 µM [3]: 4 ± 1%; IC50 ([4]; MT-Tubulin Partitioning IC50 (μM) (mean), sheared MTs at 37° C., 15 min): > 20 µM; effect on MT assembly/disassembly, MT-free tubulin partitioning (in words) ([4]; free tubulin pelleting assay): does not affect MT assembly; EC50 [5]: 67 nM; Agonist efficacy (% activation) CB2 ([5]; β-arrestin recruitment): 2 % activation; Antagonist efficacy (% activation) CB2 ([5]; β-arrestin recruitment): 20 % activation; maximal killing (% ± SEM) (T98G cells; T98G cells, at 3 μM, 72 hours): −17.0%"
"CCn1c2ccccc2c2cc(C(=O)c3cccc4c3NCCC4)ccc21 [Compound 24, 9-ethyl-3-(1,2,3,4-tetrahydroquinoline-8-carbonyl)-9H-carbazole]",> 10000 nM,only active at concentrations above five micromolar,did not affect T98G cell viability significantly,–,–,–,"maximal killing (% ± SEM) (T98G cells; T98G cells, at 100 nM, 72 hours): −18.0%"
"Cc1ccc(C(=O)n2c3ccccc3c3ccccc32)c2ccccc12 [Compound 28, 9-(4-methylnaphthalene-1-carbonyl)-9H-carbazole]",957 nM,–,–,89.1%,89%,–,–
"COc1ccc(/C=C\c2cc(OC)c(OC)c(OC)c2)cc1O [combretastatin A-4, reference compound]",–,–,–,–,–,–,"EC50 (T98G cells; T98G cells, WST-1, 72 hours after treatment, read-out: EC50): 0.6 nM; maximal killing (T98G cells; T98G cells, at 10 nM, 72 hours): 30.4%±2.1"
"CC(=O)O[C@H]1C(=O)[C@@]2(C)[C@H]([C@H](OC(=O)c3ccccc3)[C@]3(O)C[C@H](OC(=O)[C@H](O)[C@@H](NC(=O)c4ccccc4)c4ccccc4)C(C)=C1C3(C)C)[C@]1(OC(C)=O)CO[C@@H]1C[C@@H]2O [paclitaxel, reference compound]",–,–,–,–,–,–,"effect on MT in real-time tubulin polymerization (in words) (tubulin; Paclitaxel 10 μM, 19 1 μM): stabilizes MT; maximal killing (T98G cells): 63.2%±2.5; EC50 (T98G cells; Homo sapiens, T98G, 72 h): 148000 nM"
"CCCCCCC(C)(C)c1ccc([C@@H]2C[C@H](O)CC[C@H]2CCCO)c(O)c1 [positive control, CP55940, reference compound]",–,–,–,–,–,–,Agonist efficacy (% activation) CB1 [2]: 1940 % activation; Antagonist efficacy (% activation) CB1 [2]: 97 % activation; Antagonist efficacy (% activation) CB2 ([5]; β-arrestin recruitment): 92 % activation
